Data from US11046690B2, “Pyridazinones and methods of use thereof” (Goldfinch Bio, Inc., priority 2018, dated 2021).

Molecular target: T1, TRPC4 (Homo sapiens, UniProt Q9UBN4)
T1 construct: expressed in transfected cells
T1 sequence (Q9UBN4 1-982 isoform Q9UBN4-5): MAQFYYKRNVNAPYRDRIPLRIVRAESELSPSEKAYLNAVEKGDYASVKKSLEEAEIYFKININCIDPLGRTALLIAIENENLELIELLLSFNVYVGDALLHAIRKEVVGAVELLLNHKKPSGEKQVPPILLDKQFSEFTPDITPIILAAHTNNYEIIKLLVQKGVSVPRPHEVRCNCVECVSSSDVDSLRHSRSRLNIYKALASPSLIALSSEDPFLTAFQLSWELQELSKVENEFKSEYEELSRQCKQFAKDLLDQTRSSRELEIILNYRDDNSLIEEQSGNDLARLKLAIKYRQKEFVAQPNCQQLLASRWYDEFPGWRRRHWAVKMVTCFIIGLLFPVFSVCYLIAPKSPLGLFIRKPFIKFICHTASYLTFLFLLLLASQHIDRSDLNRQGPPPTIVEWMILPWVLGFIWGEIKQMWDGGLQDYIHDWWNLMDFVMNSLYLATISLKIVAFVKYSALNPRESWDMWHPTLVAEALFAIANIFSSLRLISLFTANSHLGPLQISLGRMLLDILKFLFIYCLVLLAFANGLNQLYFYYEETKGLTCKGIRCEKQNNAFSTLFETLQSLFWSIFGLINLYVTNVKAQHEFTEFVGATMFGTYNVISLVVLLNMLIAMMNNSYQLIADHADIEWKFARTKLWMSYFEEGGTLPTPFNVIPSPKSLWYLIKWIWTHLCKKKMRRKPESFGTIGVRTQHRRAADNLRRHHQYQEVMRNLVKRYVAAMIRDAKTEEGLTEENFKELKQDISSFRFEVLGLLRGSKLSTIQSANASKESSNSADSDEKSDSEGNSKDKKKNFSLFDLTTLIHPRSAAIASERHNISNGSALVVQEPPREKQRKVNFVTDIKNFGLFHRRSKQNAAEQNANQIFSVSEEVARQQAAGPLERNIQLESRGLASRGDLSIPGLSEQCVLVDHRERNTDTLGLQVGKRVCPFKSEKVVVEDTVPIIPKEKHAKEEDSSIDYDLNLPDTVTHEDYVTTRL
Assay: TRPC4 activity assay (FLIPR calcium fluorescence, Englerin A stimulation)
Format: cell-based
Conditions: HEK-TREx hTRPC4 cells, 100 nM Englerin A stimulation; read-out: TRPC4 (IC50 class)
Description: ICLN-1694 cells (HEK-TREx hTRPC4) expressing TRPC4 were generated as follows. Commercially available HekTrex-293 cells were seeded at 0.7×10^6 cells/well in a 1×6-well plate 24 hrs prior to transfection using 2 mL cell growth media containing no antibiotics (1× DMEM/high glucose (Hyclone #SH30022.02); 10%0/fetal bovine serum (Sigma) 2 mM sodium pyruvate, 10 mM HEPES). […] On day 2, 2 μg of plasmid DNA plus 6 μl of Xtreme-GENE HP reagent in Optimem (200 μl total volume) was prepared and incubated for 15 min at room temperature. This plasmid solution was then gently overlayed dropwise onto each well and the plate was gently swirled to mix complex with the media for approximately 30 seconds. Transfected cells were incubated at 37° C. in a 10% C02 incubator for 24 hrs. The transfected cells were harvested and transferred into 2×150 mm dishes containing cell growth media with no antibiotics at 37° C.
The next day selection was initiated to generate a stable pool by adding cell growth media containing 150 μg/mL Hygromycin and 5 μg/mL Blasticidin and cells were allowed to grow. Media with the selection agent was changed every 1-2 days as needed to remove dead cells. After 7 days, the hygromycin concentration was reduced to 75 μg/mL and cells growth was allowed to continue.
Single clones were selected as follows. The stable pool was diluted to 10 cells/mL and seeded (100 μl/well) into 24×96 well plates (˜1 cell/well) and allowed to grow for 7 days in cell growth media. Fresh media (100 μl) was added and the cells allowed to grow for another 1-2 weeks and then stored frozen or used immediately.
10-point dose response curves were generated using the Echo-550 acoustic dispenser. Compound source plates were made by serially diluting compound stocks to create 10 mM, 1 mM, and 0.1 mM solutions in DMSO into Echo-certified LDV plates. The Echo then serially spotted 100% DMSO stock solutions into source dose response plates to generate a 4-fold dilution scheme. 100% DMSO was added to the spotted dose response plates to bring the final volume to 5 μl. […] of the dose response stock plate was then spotted into pre-incubation and stimulation assay plates. 50 μl of pre-incubation buffer and 100 μl of stimulation buffer was then added to the plates resulting in a final assay test concentration range of 30 μM to 0.0001 μM with a final DMSO concentration of 0.3%.
ICLN-1694 cells (HEK-TREx hTRPC4) were plated onto 384 well, black pdl-coated microplates and maintained in cell growth media supplemented with 1 μg/mL tetracycline the day prior to use for experiments. TRPC4 expression was induced by the application of 1 μg/mL tetracycline at the time of plating. […] Cells were incubated at room temperature, protected from light, for 60-90 minutes. After the incubation period, the dye was removed and replaced with 10 μl of EBSS. Cell, pre-incubation and stimulation plates were loaded onto the FLIPR-II and the assay was initiated. The FLIPR measured a 10 second baseline and then added 10 μl of 2X compounds (or controls). Changes in fluorescence were monitored for an additional 5 minutes. After a 5 minute pre-incubation, 20 μl of 2X Englerin A (with 1X compound or controls) was added to the cell plate. The final Englerin A stimulation concentration in the assay was 100 nM. After the Englerin A addition, changes in fluorescence were monitored for an additional 5 minutes.
Compound modulation of TRPC4 calcium response was determined as follows. After the Englerin A, fluorescence was monitored for a 5-minute period. The maximum relative fluorescence response (minus the control response of 1 μM of an internal control compound known to maximally block TRPC4 calcium response, the “REF INHIB” in the formula below) was captured and exported from the FLIPR.
Compound effect is calculated as % inhibition using the following formula:
[formula] wherein “RFU” is the relative fluorescent units.

Row | SMILES | IC50 [nM]
1 | O=c1[nH]ncc(N2CCc3c(ncnc3Oc3ccccc3Cl)C2)c1Cl [Compound 101] | < 50
2 | Nc1nc2c(c(Oc3ccccc3C(F)(F)F)n1)CCN(c1cn[nH]c(=O)c1Cl)C2 [Compound 102] | < 50
3 | O=c1[nH]ncc(N2CCc3c(ncnc3Oc3ccccc3C(F)F)C2)c1Cl [Compound 103, 4-Chloro-5-[4-[2-(difluoromethyl)phenoxy]-5H,6H,7H,8H-pyrido[3,4-d]pyrimidin-7-yl]-2,3-dihydropyridazin-3-one] | < 50
4 | O=c1[nH]ncc(N2CCc3c(ncnc3Oc3ccc(F)cc3C(F)F)C2)c1Cl [Compound 105] | < 50
5 | O=c1[nH]ncc(N2CCc3c(ncnc3Oc3cc(F)ccc3C(F)(F)F)C2)c1Cl [Compound 106] | 50 to 500
6 | O=c1[nH]ncc(N2CCc3c(ncnc3Oc3cnccc3C(F)(F)F)C2)c1Cl [Compound 107] | 50 to 500
7 | N#Cc1cccc(Oc2ncnc3c2CCN(c2cn[nH]c(=O)c2Cl)C3)c1Cl [Compound 108, 2-Chloro-3-[[7-(5-chloro-6-oxo-1,6-dihydropyridazin-4-yl)-5H,6H,7H,8H-pyrido[3,4-d]pyrimidin-4-yl]oxy]benzonitrile] | 500 to 1000
8 | CCc1c(F)cccc1Oc1ncnc2c1CCN(c1cn[nH]c(=O)c1Cl)C2 [Compound 109, 4-Chloro-5-[4-(2-ethyl-3-fluorophenoxy)-5H,6H,7H,8H-pyrido[3,4-d]pyrimidin-7-yl]-2,3-dihydropyridazin-3-one] | 50 to 500
9 | COc1nc2c(c(Oc3ccccc3C(F)(F)F)n1)CCN(c1cn[nH]c(=O)c1Cl)C2 [Compound 110, 4-Chloro-5-[2-methoxy-4-[2-(trifluoromethyl)phenoxy]-5H,6H,7H,8H-pyrido[3,4-d]pyrimidin-7-yl]-2,3-dihydropyridazin-3-one] | < 50
10 | Nc1nc2c(c(Oc3ccc(F)cc3Cl)n1)CCN(c1cn[nH]c(=O)c1Cl)C2 [Compound 112, 5-[2-amino-4-(2-chloro-4-fluorophenoxy)-5H,6H,7H,8H-pyrido[3,4-d]pyrimidin-7-yl]-4-chloro-2,3-dihydropyridazin-3-one] | 50 to 500
11 | Nc1nc2c(c(Oc3ccccc3Cl)n1)CCN(c1cn[nH]c(=O)c1Cl)C2 [Compound 113] | 50 to 500
12 | O=c1[nH]ncc(N2CCc3c(nc(CO)nc3Oc3ccc(F)cc3Cl)C2)c1Cl [Compound 114] | < 50
13 | O=c1[nH]ncc(N2CCc3c(nc(NCCO)nc3Oc3ccccc3C(F)(F)F)C2)c1Cl [Compound 115, 4-chloro-5-[2-[(2-hydroxyethyl)amino]-4-[2-(trifluoromethyl)phenoxy]-5H,6H,7H,8H-pyrido[3,4-d]pyrimidin-7-yl]-2,3-dihydropyridazin-3-one] | 50 to 500
14 | Nc1nc2c(c(Oc3ccc(F)cc3C(F)(F)F)n1)CCN(c1cn[nH]c(=O)c1Cl)C2 [Compound 116] | < 50
15 | C[C@@H]1c2ncnc(Oc3ccc(F)cc3Cl)c2CCN1c1cn[nH]c(=O)c1Cl [Compound 118, 4-chloro-5-[(8R)-4-(2-chloro-4-fluorophenoxy)-8-methyl-5H,6H,7H,8H-pyrido[3,4-d]pyrimidin-7-yl]-2,3-dihydropyridazin-3-one] | 50 to 500
16 | C[C@@H](O)c1nc2c(c(Oc3ccc(F)cc3Cl)n1)CCN(c1cn[nH]c(=O)c1Cl)C2 [Compound 119] | < 50
17 | O=c1[nH]ncc(N2CCc3c(ccnc3Oc3ccc(F)cc3C(F)(F)F)C2)c1Cl [Compound 120, 4-chloro-5-[5-[4-fluoro-2-(trifluoromethyl)phenoxy]-1,2,3,4-tetrahydro-2,6-naphthyridin-2-yl]-2,3-dihydropyridazin-3-one] | < 50
